Measurements as given in PubChem BioAssay AID270 (DTP/NCI, 2004).
Several values for one entry are separate records, joined by “and”; a condition that tells them apart may be missing. Equal entries are not always repeated. Results filed as inconclusive are left out.

System: BDF1 mice, s.c. Lewis lung carcinoma, T/C %
Experiment: NCI In Vivo Anticancer Drug Screen. Data for tumor model Lewis Lung Carcinoma (subcutaneous) in B6D2F1 (BDF1) mice
Outline: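 First, mice carry a transplantable tumor. Next, groups receive either compound or vehicle. Finally, survival or tumor dimensions in the dosed animals are divided by the corresponding control figure.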

SMILES: Nc1ccn(C2OC(CO)C(O)C2O)c(=O)n1 (stereo not given)
- T/C (endpoint: mean tumor weight, dose: 20.0 mg/kg/injection, schedule: Q01DX011 (ip), vehicle: saline, higher = larger tumour): 55 % of control
- T/C (endpoint: mean tumor weight, dose: 40.0 mg/kg/injection, schedule: Q01DX011 (ip), vehicle: saline, higher = larger tumour): 40 % of control
- T/C (endpoint: median survival time, dose: 1.0 mg/kg/injection, schedule: Q01DX011 (adlb), vehicle: water, higher = longer survival): 110 % of control
- T/C (endpoint: median survival time, dose: 2.0 mg/kg/injection, schedule: Q01DX011 (adlb), vehicle: water, higher = longer survival): 100 % of control
- T/C (endpoint: median tumor weight (est.), dose: 2.7 mg/kg/injection, schedule: Q03HX032 (ip), vehicle: saline, higher = larger tumour): 43 % of control
- T/C (endpoint: median tumor weight (est.), dose: 4.0 mg/kg/injection, schedule: Q03HX024 (ip), vehicle: saline, higher = larger tumour): 50 % of control
- T/C (endpoint: median tumor weight (est.), dose: 4.0 mg/kg/injection, schedule: Q03HX032 (ip), vehicle: saline, higher = larger tumour): 36 % of control
- T/C (endpoint: median tumor weight (est.), dose: 5.3 mg/kg/injection, schedule: Q03HX016 (ip), vehicle: saline, higher = larger tumour): 59 % of control
- T/C (endpoint: median tumor weight (est.), dose: 6.0 mg/kg/injection, schedule: Q03HX024 (ip), vehicle: saline, higher = larger tumour): 34 % of control
- T/C (endpoint: median tumor weight (est.), dose: 8.0 mg/kg/injection, schedule: Q03HX016 (ip), vehicle: saline, higher = larger tumour): 67 % of control
- T/C (endpoint: median tumor weight (est.), dose: 10.0 mg/kg/injection, schedule: Q03HX008 (ip), vehicle: saline, higher = larger tumour): 62 % of control
- T/C (endpoint: median tumor weight (est.), dose: 10.0 mg/kg/injection, schedule: Q03HX032 (ip), vehicle: saline, higher = larger tumour): 59 % of control
- T/C (endpoint: median tumor weight (est.), dose: 12.0 mg/kg/injection, schedule: Q03HX016 (ip), vehicle: saline, higher = larger tumour): 32 % of control
- T/C (endpoint: median tumor weight (est.), dose: 12.5 mg/kg/injection, schedule: Q01DX009 (ip), vehicle: saline, higher = larger tumour): 93 % of control
- T/C (endpoint: median tumor weight (est.), dose: 15.0 mg/kg/injection, schedule: Q03HX032 (ip), vehicle: saline, higher = larger tumour): 55 % of control
- T/C (endpoint: median tumor weight (est.), dose: 16.0 mg/kg/injection, schedule: Q03HX008 (ip), vehicle: saline, higher = larger tumour): 57 % of control
- T/C (endpoint: median tumor weight (est.), dose: 20.0 mg/kg/injection, schedule: Q01DX015 (ip), vehicle: saline, higher = larger tumour): 74 % of control
- T/C (endpoint: median tumor weight (est.), dose: 20.0 mg/kg/injection, schedule: Q06HX020 (ip), vehicle: saline, higher = larger tumour): 70 % of control
- T/C (endpoint: median tumor weight (est.), dose: 20.0 mg/kg/injection, schedule: Q12HX027 (ip), vehicle: saline, higher = larger tumour): 62 % of control
- T/C (endpoint: median tumor weight (est.), dose: 22.5 mg/kg/injection, schedule: Q03HX032 (ip), vehicle: saline, higher = larger tumour): 48 % of control
- T/C (endpoint: median tumor weight (est.), dose: 24.0 mg/kg/injection, schedule: Q03HX008 (ip), vehicle: saline, higher = larger tumour): 54 % of control
- T/C (endpoint: median tumor weight (est.), dose: 25.0 mg/kg/injection, schedule: Q01DX009 (ip), vehicle: saline, higher = larger tumour): 100 % of control
- T/C (endpoint: median tumor weight (est.), dose: 26.0 mg/kg/injection, schedule: Q01DX011 (ip), vehicle: saline, higher = larger tumour): 68 % of control
- T/C (endpoint: median tumor weight (est.), dose: 30.0 mg/kg/injection, schedule: Q01DX015 (ip), vehicle: saline, higher = larger tumour): 67 % of control
- T/C (endpoint: median tumor weight (est.), dose: 30.0 mg/kg/injection, schedule: Q06HX020 (ip), vehicle: saline, higher = larger tumour): 45 % of control
- T/C (endpoint: median tumor weight (est.), dose: 36.0 mg/kg/injection, schedule: Q03HX008 (ip), vehicle: saline, higher = larger tumour): 24 % of control
- T/C (endpoint: median tumor weight (est.), dose: 38.0 mg/kg/injection, schedule: Q01DX011 (ip), vehicle: saline, higher = larger tumour): 75 % of control
- T/C (endpoint: median tumor weight (est.), dose: 45.0 mg/kg/injection, schedule: Q01DX015 (ip), vehicle: saline, higher = larger tumour): 73 % of control
- T/C (endpoint: median tumor weight (est.), dose: 45.0 mg/kg/injection, schedule: Q06HX020 (ip), vehicle: saline, higher = larger tumour): 30 % of control
- T/C (endpoint: median tumor weight (est.), dose: 50.0 mg/kg/injection, schedule: Q01DX009 (ip), vehicle: saline, higher = larger tumour): 60 % of control
- T/C (endpoint: median tumor weight (est.), dose: 150.0 mg/kg/injection, schedule: Q12HX012 (ip), vehicle: saline, higher = larger tumour): 5 % of control
- T/C (endpoint: median tumor weight (est.), dose: 220.0 mg/kg/injection, schedule: Q12HX012 (ip), vehicle: saline, higher = larger tumour): 2 % of control
- T/C (endpoint: median tumor weight (est.), dose: 250.0 mg/kg/injection, schedule: Q04DX003 (ip), vehicle: saline, higher = larger tumour): 74 % of control
- T/C (endpoint: median tumor weight (est.), dose: 1000.0 mg/kg/injection, schedule: Q04DX003 (ip), vehicle: saline, higher = larger tumour): 64 % of control

SMILES: C=C(CC(=O)O)C(=O)O (tested in a mixture with another compound)
- T/C (endpoint: median survival time, dose: 3.12 mg/kg/injection, schedule: Q01DX009 (ip), vehicle: other, higher = longer survival): 94 % of control
- T/C (endpoint: median survival time, dose: 6.25 mg/kg/injection, schedule: Q01DX009 (ip), vehicle: other, higher = longer survival): 101 % of control
- T/C (endpoint: median survival time, dose: 12.5 mg/kg/injection, schedule: Q01DX009 (ip), vehicle: other, higher = longer survival): 103 % of control
- T/C (endpoint: median survival time, dose: 25.0 mg/kg/injection, schedule: Q01DX009 (ip), vehicle: other, higher = longer survival): 88 % of control

SMILES: COc1cc(OC)c(OC)cc1/C=C\c1ccnc2ccccc12
- T/C (endpoint: median survival time, dose: 50.0 mg/kg/injection, schedule: Q01DX009 (ip), vehicle: Klucel (hydroxypropylcellulose) (HPC), higher = longer survival): 94 % of control
- T/C (endpoint: median survival time, dose: 100.0 mg/kg/injection, schedule: Q01DX009 (ip), vehicle: Klucel (hydroxypropylcellulose) (HPC), higher = longer survival): 93 % of control
- T/C (endpoint: median survival time, dose: 400.0 mg/kg/injection, schedule: Q01DX009 (ip), vehicle: Klucel (hydroxypropylcellulose) (HPC), higher = longer survival): 97 % of control

SMILES: CO[C@H](C(=O)[C@@H](O)[C@@H](C)O)[C@@H]1Cc2cc3cc(OC4CC(OC5CC(O)C(O)C(C)O5)C(O)C(C)O4)c(C)c(O)c3c(O)c2C(=O)[C@H]1OC1CC(OC2CC(OC3CC(C)(O)C(O)C(C)O3)C(O)C(C)O2)C(O)C(C)O1 (stereo not given in full)
- T/C (endpoint: median survival time, dose: 0.25 mg/kg/injection, schedule: Q01DX009 (ip), vehicle: saline, higher = longer survival): 116 % of control

SMILES: OC(COc1cccc2ccccc12)CN(CCCl)CCCl (stereo not given)
- T/C (endpoint: median survival time, dose: 1.25 mg/kg/injection, schedule: Q01DX009 (ip), vehicle: Klucel (hydroxypropylcellulose) (HPC), higher = longer survival): 94 % of control and 104 % of control
- T/C (endpoint: median survival time, dose: 2.5 mg/kg/injection, schedule: Q01DX009 (ip), vehicle: Klucel (hydroxypropylcellulose) (HPC), higher = longer survival): 100 % of control and 101 % of control
- T/C (endpoint: median survival time, dose: 5.0 mg/kg/injection, schedule: Q01DX009 (ip), vehicle: Klucel (hydroxypropylcellulose) (HPC), higher = longer survival): 103 % of control
